Among the data in US20230257376A1, “ROCK INHIBITOR, AND PREPARATION METHOD THEREFOR AND USE THEREOF” (WUHAN LL SCIENCE AND TECHNOLOGY DEVELOPMENT CO., LTD., priority 2020, published 2023) are IC50 values, retold here.

One assay deals with T1, ROCK2 kinase (Homo sapiens, UniProt O75116).
T1 construct: purchased Invitrogen PV3759
Kind of assay: In vitro evaluation of ROCK2 kinase activity (HTRF KinEASE-STK time-resolved fluorometric assay). The note with it: ROCK2 kinase 0.4 ng/μL, ATP 6.739 μM. In kind it is biochemical. The protocol: ROCK2 activity screening. ROCK2 activity was detected using a 96-well (Cisbio) time-resolved fluorometric assay. The assay for ROCK2 was performed in the following assay buffer: 5 mM MgCl2 (Sigma), 1 mM DTT (Sigma) and 1× kinase buffer. The kinase buffer was used for dilution. 7.5 μL of ROCK2 kinase (Invitrogen, PV3759) was added to a 96-well microplate to reach a final concentration of 0.4 ng/μL, and then 0.25 μL of test compound (DMSO content: 1% (volume fraction)) was added. The mixture was incubated at room temperature for 0.5 h. To start the reaction, the kinase buffer was used to mix ATP (Aladdin) and the substrate STK-substrate 2-biotin. 7.5 μL of the mixed solution was added to the microplate to reach final concentrations of 6.739 μM and 1 μM. The resulting mixture was incubated at room temperature for 2 h. 5 mL of detection buffer was mixed with STK antibody-Cryptate, and then an appropriate volume of the mixture was mixed with an equal volume of streptavidin-XL665. 10 μL of the resulting mixture was added to the microplate to stop the reaction. After further incubation for about 1 h, the microplate was read on a Molecular Devices SpectraMax i3x multifunctional microplate reader. The kinase buffer, the STK-substrate 2-biotin, the detection buffer, the STK antibody-Cryptate, and the streptavidin-XL665 were all from HTRF KinEASE-STK kit (Cisbio, 1000 tests, 61GSTXLA).

The next assay addresses T2, ROCK1 kinase (Homo sapiens, UniProt Q13464).
T2 construct: purchased Invitrogen
As to the kind of experiment: In vitro evaluation of ROCK1 kinase selectivity (HTRF KinEASE-STK time-resolved fluorometric assay). The following applies: ROCK1 kinase 0.4 ng/μL, ATP 3.53 μM. The class given is biochemical. The method, then: ROCK1 activity was detected using a 96-well (Cisbio) time-resolved fluorometric assay. The assay for ROCK1 was performed in the following assay buffer: 5 mM MgCl2 (Sigma), 1 mM DTT (Sigma) and 1× kinase buffer. The kinase buffer was used for dilution. 7.5 μL of ROCK1 kinase (Invitrogen) was added to a 96-well microplate to reach a final concentration of 0.4 ng/μL, and then 0.25 μL of test compound (DMSO content: 1%) was added. The mixture was incubated at room temperature for 0.5 h. To start the reaction, the kinase buffer was also used to mix ATP (Aladdin) and the substrate STK-substrate 2-biotin. 7.5 μL of the mixed solution was added to the microplate to reach final concentrations of 3.53 μM and 1 μM. The resulting mixture was incubated at room temperature for 2 h. 5 mL of detection buffer was mixed with STK antibody-Cryptate, and then an appropriate volume of the mixture was mixed with an equal volume of streptavidin-XL665. 10 μL of the resulting mixture was added to stop the reaction. After further incubation for about 1 h, the microplate was read on a Molecular Devices SpectraMax i3x multifunctional microplate reader. The kinase buffer, the STK-substrate 2-biotin, the detection buffer, the STK antibody-Cryptate, and the streptavidin-XL665 were all from HTRF KinEASE-STK kit (Cisbio, 1000 tests, 61GSTXLA).
For orientation: In TR-FRET formats the signal depends on donor and acceptor labels being close together.

A word on the IC50: it is the concentration needed to halve the response being measured.

T1 sequence (O75116 whole entry): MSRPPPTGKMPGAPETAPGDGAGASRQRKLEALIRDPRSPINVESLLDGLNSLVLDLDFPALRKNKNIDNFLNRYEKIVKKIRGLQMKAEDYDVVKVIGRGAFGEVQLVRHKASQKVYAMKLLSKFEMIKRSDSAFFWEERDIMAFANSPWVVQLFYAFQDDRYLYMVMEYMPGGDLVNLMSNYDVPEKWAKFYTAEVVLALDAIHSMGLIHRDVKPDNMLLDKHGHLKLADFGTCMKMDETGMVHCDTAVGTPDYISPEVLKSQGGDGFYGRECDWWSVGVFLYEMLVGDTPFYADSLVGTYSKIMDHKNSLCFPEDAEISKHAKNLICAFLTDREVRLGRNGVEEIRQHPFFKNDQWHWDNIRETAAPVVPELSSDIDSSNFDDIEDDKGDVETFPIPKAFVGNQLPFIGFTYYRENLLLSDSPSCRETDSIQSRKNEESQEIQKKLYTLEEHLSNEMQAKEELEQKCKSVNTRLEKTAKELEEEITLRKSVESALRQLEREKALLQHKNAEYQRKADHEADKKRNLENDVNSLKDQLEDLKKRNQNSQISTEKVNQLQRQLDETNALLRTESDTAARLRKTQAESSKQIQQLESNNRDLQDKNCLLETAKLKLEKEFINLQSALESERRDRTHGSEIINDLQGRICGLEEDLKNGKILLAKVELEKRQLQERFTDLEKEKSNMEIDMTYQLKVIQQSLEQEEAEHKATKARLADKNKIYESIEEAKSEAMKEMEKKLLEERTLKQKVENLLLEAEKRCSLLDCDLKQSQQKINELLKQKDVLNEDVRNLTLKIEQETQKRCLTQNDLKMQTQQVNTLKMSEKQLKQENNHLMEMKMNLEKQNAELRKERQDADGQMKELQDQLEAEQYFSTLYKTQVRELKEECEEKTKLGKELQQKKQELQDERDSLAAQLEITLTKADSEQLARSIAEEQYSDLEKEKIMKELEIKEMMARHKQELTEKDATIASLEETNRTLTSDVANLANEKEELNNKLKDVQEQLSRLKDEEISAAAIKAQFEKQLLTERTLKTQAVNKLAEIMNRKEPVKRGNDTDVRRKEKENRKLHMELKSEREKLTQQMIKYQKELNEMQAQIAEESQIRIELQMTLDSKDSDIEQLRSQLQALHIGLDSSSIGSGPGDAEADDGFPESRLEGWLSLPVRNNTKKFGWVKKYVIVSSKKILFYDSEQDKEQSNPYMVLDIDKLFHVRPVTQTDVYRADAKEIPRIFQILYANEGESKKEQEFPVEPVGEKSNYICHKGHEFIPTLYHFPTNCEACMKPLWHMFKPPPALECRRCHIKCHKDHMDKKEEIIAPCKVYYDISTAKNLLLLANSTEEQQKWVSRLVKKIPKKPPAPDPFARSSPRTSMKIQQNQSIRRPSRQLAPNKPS
T2 sequence (Q13464 whole entry): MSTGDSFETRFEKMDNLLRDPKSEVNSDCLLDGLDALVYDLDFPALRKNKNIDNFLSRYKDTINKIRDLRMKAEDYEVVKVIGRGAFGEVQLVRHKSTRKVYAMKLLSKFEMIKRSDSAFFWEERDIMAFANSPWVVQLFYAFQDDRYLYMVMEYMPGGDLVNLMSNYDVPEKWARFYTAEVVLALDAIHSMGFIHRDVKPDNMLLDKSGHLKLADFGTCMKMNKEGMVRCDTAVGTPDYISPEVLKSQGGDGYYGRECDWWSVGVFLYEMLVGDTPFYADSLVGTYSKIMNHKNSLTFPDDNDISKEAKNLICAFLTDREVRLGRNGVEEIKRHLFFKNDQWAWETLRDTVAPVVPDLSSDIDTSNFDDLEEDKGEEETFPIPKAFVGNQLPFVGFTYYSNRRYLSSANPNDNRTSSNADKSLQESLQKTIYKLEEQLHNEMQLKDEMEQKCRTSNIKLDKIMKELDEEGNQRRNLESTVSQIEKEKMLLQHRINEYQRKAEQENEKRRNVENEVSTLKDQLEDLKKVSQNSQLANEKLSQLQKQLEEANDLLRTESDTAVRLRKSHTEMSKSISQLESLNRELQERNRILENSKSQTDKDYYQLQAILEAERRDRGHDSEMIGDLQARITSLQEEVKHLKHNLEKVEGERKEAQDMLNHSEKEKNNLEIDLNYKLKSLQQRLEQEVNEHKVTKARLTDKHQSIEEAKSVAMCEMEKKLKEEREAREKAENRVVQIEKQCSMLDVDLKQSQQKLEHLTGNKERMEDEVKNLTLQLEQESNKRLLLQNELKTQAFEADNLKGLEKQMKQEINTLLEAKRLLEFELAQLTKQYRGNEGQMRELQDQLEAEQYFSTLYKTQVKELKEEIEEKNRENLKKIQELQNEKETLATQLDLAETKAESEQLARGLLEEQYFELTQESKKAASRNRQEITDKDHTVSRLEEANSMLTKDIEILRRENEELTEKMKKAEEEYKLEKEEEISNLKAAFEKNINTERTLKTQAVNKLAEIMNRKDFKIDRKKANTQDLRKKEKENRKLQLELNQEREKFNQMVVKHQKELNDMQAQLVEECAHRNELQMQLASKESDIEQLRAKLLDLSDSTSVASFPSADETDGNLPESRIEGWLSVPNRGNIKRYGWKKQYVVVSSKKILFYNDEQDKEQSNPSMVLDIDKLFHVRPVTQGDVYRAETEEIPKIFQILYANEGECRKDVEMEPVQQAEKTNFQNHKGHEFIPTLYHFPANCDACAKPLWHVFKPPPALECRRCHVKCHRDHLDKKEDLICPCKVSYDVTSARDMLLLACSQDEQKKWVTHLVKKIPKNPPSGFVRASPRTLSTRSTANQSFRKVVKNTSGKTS

For the compound `Cn1c(C(=O)N2CC(F)(F)C2)cc2c1C(C)(C)N(c1nccc(Nc3ccc(-c4cn[nH]c4)cc3)n1)CC2` [Compound L018], the values for the IC50 against ROCK2 kinase and against ROCK1 kinase were 50 to 500 nM and > 4500 nM, respectively.

With `O=C(c1ccc2c(c1)CN(c1nccc(Nc3ccc(-c4cn[nH]c4)cc3)n1)CC2)N1CC(F)(F)C1` [Compound L028, (2-(4-((4-(1H-pyrazol-4-yl)phenyl)amino)pyrimidin-2-yl)-1,2,3,4-tetrahydroisoquinolin-7-yl)(3,3-difluoroazetidin-1-yl)methanone], the IC50 was 500 to 4500 nM at ROCK2 kinase and > 4500 nM against ROCK1 kinase.

On to `Cn1c(C(=O)Nc2ccnnc2)cc2c1CN(c1nccc(Nc3ccc(-c4cn[nH]c4)cc3)n1)CC2` [Compound L012, 6-(4-((4-(1H-pyrazol-4-yl)phenyl)amino)pyrimidin-2-yl)-1-methyl-N-(pyridazin-4-yl)-4,5,6,7-tetrahydro-1H-pyrrolo[2,3-c]pyridine-2-carboxamide], for which the IC50 at ROCK2 kinase and against ROCK1 kinase was 50 to 500 nM each time.

Regarding `Cn1c(C(=O)NC2CCN(c3ccncc3Cl)CC2)cc2c1CN(c1nccc(Nc3ccc(-c4cn[nH]c4)cc3)n1)CC2` [Compound L021], the IC50 on ROCK2 kinase was 50 to 500 nM; on ROCK1 kinase it was > 4500 nM.

For the compound `Cn1c(C(=O)N2CC(F)(F)C2)cc2c1CN(c1nccc(Nc3ccc(-c4c[nH]nc4F)c(F)c3)n1)CC2` [Compound L016, (3,3-difluoroazetidin-1-yl)(6-(4-((3-fluoro-4-(3-fluoro-1H-pyrazol-4-yl)phenyl)amino)pyrimidin-2-yl)-1-methyl-4,5,6,7-tetrahydro-1H-pyrrolo[2,3-c]pyridin-2-yl)methanone], the half-inhibitory concentration (IC50) at ROCK2 kinase was ≤ 50 nM; on ROCK1 kinase, > 4500 nM.

For the compound `Cn1c(C(=O)N2CC(F)(F)C2)cc2c1CN(c1ncc(C#N)c(Nc3ccc(-c4cn[nH]c4)cc3)n1)CC2` [Compound L034, 4-((4-(1H-pyrazol-4-yl)phenyl)amino)-2-(2-(3,3-difluoroazetidin-1-carbonyl)-1-methyl-4,5-dihydro-1H-pyrrolo[2,3-c]pyridin-6(7H)-yl)pyrimidine-5-carbonitrile], the values for the IC50 against ROCK2 kinase and against ROCK1 kinase were ≤ 50 nM and > 4500 nM, respectively.

As for `O=C(c1cn2c(n1)CN(c1nccc(Nc3ccc(-c4cn[nH]c4)cc3)n1)CC2)N1CC(F)(F)C1` [Compound L015], the IC50 at ROCK2 kinase is 50 to 500 nM; on ROCK1 kinase it was > 4500 nM.

For the compound `Cn1c(C(=O)N2CC(F)(F)C2)cc2c1CN(c1nc3c(c(Nc4ccc(-c5cn[nH]c5)cc4)n1)CCC3)CC2` [Compound L053, (6-(4-((4-(1H-pyrazol-4-yl)phenyl)amino)-6,7-dihydro-5H-cyclopenta[d]pyrimidin-2-yl)-1-methyl-4,5,6,7-tetrahydro-1H-pyrrolo[2,3-c]pyridin-2-yl)(3,3-difluoroazetidin-1-yl)methanone], the IC50 against ROCK2 kinase was 50 to 500 nM; at ROCK1 kinase, > 4500 nM.

Regarding `O=C(NC1CC(F)(F)C1)c1cn2c(n1)CN(c1nccc(Nc3ccc(-c4cn[nH]c4)cc3)n1)CC2` [Compound L008, 7-(4-((4-(1H-pyrazol-4-yl)phenyl)amino)pyrimidin-2-yl)-N-(3,3-difluorocyclobutyl)-5,6,7,8-tetrahydroimidazo[1,2-a]pyrazine-2-carboxamide], the results for the IC50 at ROCK2 kinase and on ROCK1 kinase were ≤ 50 nM and > 4500 nM, respectively.

Turning to `Cn1c(C(=O)N2C[C@@H](O)[C@@H](F)C2)cc2c1CN(c1nccc(Nc3ccc(-c4cn[nH]c4)cc3)n1)CC2` [Compound L024], the values for the IC50 against ROCK2 kinase and against ROCK1 kinase were ≤ 50 nM and 500 to 4500 nM, respectively.

Turning to `O=C(c1ccc2c(cnn2-c2nccc(Nc3ccc(-c4cn[nH]c4)cc3)n2)c1)N1CC(F)(F)C1` [Compound L055], the results for the IC50 at ROCK2 kinase and at ROCK1 kinase were 500 to 4500 nM and > 4500 nM, respectively.

On to `Cn1c(C(=O)N2CC(C#N)C2)cc2c1CN(c1nccc(Nc3ccc(-c4cn[nH]c4)cc3)n1)CC2` [Compound L010, 1-(6-(4-((4-(1H-pyrazol-4-yl)phenyl)amino)pyrimidin-2-yl)-1-methyl-4,5,6,7-tetrahydro-1H-pyrrolo[2,3-c]pyridin-2-carbonyl)azetidine-3-carbonitrile], for which the IC50 at ROCK2 kinase was ≤ 50 nM; against ROCK1 kinase, > 4500 nM.

With `O=C(c1ccc2c(c1)CCN(c1nccc(Nc3ccc(-c4cn[nH]c4)cc3)n1)C2)N1CC(F)(F)C1` [Compound L029], the IC50 at ROCK2 kinase is 500 to 4500 nM; on ROCK1 kinase, > 4500 nM.

As to `Cn1c(C(=O)N2CC(F)(F)C2)cc2c1CN(c1ncc(Cl)c(Nc3ccc(-c4c[nH]nc4F)cc3)n1)CC2` [Compound L038, (6-(5-chloro-4-((4-(3-fluoro-1H-pyrazol-4-yl)phenyl)amino)pyrimidin-2-yl)-1-methyl-4,5,6,7-tetrahydro-1H-pyrrolo[2,3-c]pyridin-2-yl)(3,3-difluoroazetidin-1-yl)methanone], the IC50 is 50 to 500 nM against ROCK2 kinase and > 4500 nM on ROCK1 kinase.

Consider `Cn1c(C(=O)N2CC(F)(F)C2)cc2c1CN(c1nc(Nc3ccc(-c4cn[nH]c4)cc3)cc(C(F)(F)F)n1)CC2` [Compound L041, (6-(4-((4-(1H-pyrazol-4-yl)phenyl)amino)-6-(trifluoromethyl)pyrimidin-2-yl)-1-methyl-4,5,6,7-tetrahydro-1H-pyrrolo[2,3-c]pyridin-2-yl)(3,3-difluoroazetidin-1-yl)methanone], for which the IC50 at ROCK2 kinase is 50 to 500 nM; against ROCK1 kinase it was > 4500 nM.

For `Cn1c(C(=O)N2CC(F)(F)C2)cc2c1CN(c1nccc(Nc3ccc(-c4cn[nH]c4)cc3)n1)CC2(C)C` [Compound L020, (6-(4-((4-(1H-pyrazol-4-yl)phenyl)amino)pyrimidin-2-yl)-1,4,4-trimethyl-4,5,6,7-tetrahydro-1H-pyrrolo[2,3-c]pyridin-2-yl)(3,3-difluoroazetidin-1-yl)methanone], the values for the IC50 at ROCK2 kinase and on ROCK1 kinase were 50 to 500 nM and > 4500 nM, respectively.

Regarding `Cn1c(C(=O)N2CC(F)(F)C2)cc2c1CN(c1nccc(Nc3ccc4[nH]ncc4c3)n1)CC2` [Compound L006, (6-(4-((1H-indazol-5-yl)amino)pyrimidin-2-yl)-1-methyl-4,5,6,7-tetrahydro-1H-pyrrol[2,3-c]pyridin-2-yl)(3,3-difluoroazetidin-1-yl)methanone], the IC50 is 50 to 500 nM on ROCK2 kinase and 500 to 4500 nM against ROCK1 kinase.

As to `Cn1c(C(=O)NC2CC(F)(F)C2)cc2c1CN(c1nccc(Nc3ccc(-c4cn[nH]c4)cc3)n1)CC2` [Compound L004, 6-(4-((4-(1H-pyrazol-4-yl)phenyl)amino)pyrimidin-2-yl)-N-(3,3-difluorocyclobutyl)-1-methyl-4,5,6,7-tetrahydro-1H-pyrrolo[2,3-c]pyridine-2-carboxamide], the IC50 on ROCK2 kinase lay within 50 to 500 nM; on ROCK1 kinase, 500 to 4500 nM.

As for `CC(C)c1nc(Nc2ccc(-c3cn[nH]c3)cc2)nc(N2CCc3cc(C(=O)N4CC(F)(F)C4)n(C)c3C2)n1` [Compound L049], the IC50 at ROCK2 kinase was 50 to 500 nM; against ROCK1 kinase, > 4500 nM.

In the case of `Cn1c(C(=O)N2CC(F)(F)C2)cc2c1CN(c1nnc(Nc3ccc(-c4cn[nH]c4)cc3)o1)CC2` [Compound L046, (6-(5-((4-(1H-pyrazol-4-yl)phenyl)amino)-1,3,4-oxadiazol-2-yl)-1-methyl-4,5,6,7-tetrahydro-1H-pyrrolo[2,3-c]pyridin-2-yl)(3,3-difluoroazetidin-1-yl)methanone], the IC50 against ROCK2 kinase and against ROCK1 kinase was > 4500 nM each time.

Regarding `Cn1c(C(=O)N2CC(C(F)F)C2)cc2c1CN(c1ncc(F)c(Nc3ccc(-c4c[nH]nc4F)cc3)n1)CC2` [Compound L039, (3-(difluoromethyl)azetidin-1-yl)(6-(5-fluoro-4-((4-(3-fluoro-1H-pyrazol-4-yl)phenyl)amino)pyrimidin-2-yl)-1-methyl-4,5,6,7-tetrahydro-1H-pyrrolo[2,3-c]pyridin-2-yl)methanone], the half-maximal inhibitory concentration (IC50) on ROCK2 kinase was 50 to 500 nM; against ROCK1 kinase, > 4500 nM.

Take `Cn1c(C(=O)N2CC(F)(F)C2)cc2c1CN(c1nc(Nc3ccc(-c4cn[nH]c4)cc3)nc(C3COC3)n1)CC2` [Compound L052, (6-(4-((4-(1H-pyrazol-4-yl)phenyl)amino)-6-(oxetan-3-yl)-1,3,5-triazin-2-yl)-1-methyl-4,5,6,7-tetrahydro-1H-pyrrolo[2,3-c]pyridin-2-yl)(3,3-difluoroazetidin-1-yl)methanone]: the 50% inhibitory concentration (IC50) was 50 to 500 nM on ROCK2 kinase and > 4500 nM at ROCK1 kinase.
